From article PMC4767141, “Discovery of Potent, Orally Bioavailable, Small-Molecule Inhibitors of WNT Signaling from a Cell-Based Pathway Screen” (Journal of Medicinal Chemistry, 2015)

Legend:
[1] = test system: α2 (non-selective); assay: CEREP binding panel; conditions: 10 μM, antagonist radioligand
[2] = target: T1, AT1 (h) (Homo sapiens, UniProt P30556); assay: CEREP binding panel; conditions: antagonist radioligand, read-out: % Inhibition of Control Specific Binding
T1 construct: purchased Millipore KinaseProfiler (kinases); Cerep (receptors and ion channels)

[3] = target: T2, CCK1 (CCKA) (h) (Homo sapiens, UniProt P32238); assay: CEREP binding panel; conditions: agonist radioligand, read-out: % Inhibition of Control Specific Binding
T2 construct: purchased Millipore KinaseProfiler (kinases); Cerep (receptors and ion channels)

[4] = target: T3, D1 (h) (Homo sapiens, UniProt P21728); assay: CEREP binding panel; conditions: antagonist radioligand, read-out: % Inhibition of Control Specific Binding
T3 construct: purchased Millipore KinaseProfiler (kinases); Cerep (receptors and ion channels)

[5] = target: T4, D2S (h) (Homo sapiens, UniProt P14416); assay: CEREP binding panel; conditions: antagonist radioligand, read-out: % Inhibition of Control Specific Binding
T4 construct: purchased Millipore KinaseProfiler (kinases); Cerep (receptors and ion channels)

[6] = target: T5, H1 (h) (Homo sapiens, UniProt P35367); assay: CEREP binding panel; conditions: antagonist radioligand, read-out: % Inhibition of Control Specific Binding
T5 construct: purchased Millipore KinaseProfiler (kinases); Cerep (receptors and ion channels)
T5 sequence (P35367 whole entry): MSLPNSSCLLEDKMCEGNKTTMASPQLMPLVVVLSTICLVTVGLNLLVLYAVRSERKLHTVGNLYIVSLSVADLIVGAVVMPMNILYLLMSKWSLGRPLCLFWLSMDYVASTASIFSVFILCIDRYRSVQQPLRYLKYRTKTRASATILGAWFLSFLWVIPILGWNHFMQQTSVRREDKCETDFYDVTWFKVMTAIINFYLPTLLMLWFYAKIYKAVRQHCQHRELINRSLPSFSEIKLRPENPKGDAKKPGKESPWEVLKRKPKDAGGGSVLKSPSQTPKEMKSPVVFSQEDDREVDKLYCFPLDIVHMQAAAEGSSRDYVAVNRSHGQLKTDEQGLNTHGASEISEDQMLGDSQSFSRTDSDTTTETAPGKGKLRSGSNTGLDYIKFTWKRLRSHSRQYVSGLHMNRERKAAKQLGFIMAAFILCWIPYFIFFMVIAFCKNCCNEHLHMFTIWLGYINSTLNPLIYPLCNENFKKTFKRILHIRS

[7] = target: T6, δ2 (DOP) (h) (Homo sapiens, UniProt P41143); assay: CEREP binding panel; conditions: agonist radioligand, read-out: % Inhibition of Control Specific Binding
T6 construct: purchased Millipore KinaseProfiler (kinases); Cerep (receptors and ion channels)

[8] = target: T7, 5-HT1A (h) (Homo sapiens, UniProt P08908); assay: CEREP binding panel; conditions: agonist radioligand, read-out: % Inhibition of Control Specific Binding
T7 construct: purchased Millipore KinaseProfiler (kinases); Cerep (receptors and ion channels)

[9] = target: T8, 5-HT2B (h) (Homo sapiens, UniProt P41595); assay: CEREP binding panel; conditions: agonist radioligand, read-out: % Inhibition of Control Specific Binding
T8 construct: purchased Millipore KinaseProfiler (kinases); Cerep (receptors and ion channels)

[10] = target: T9, VPAC1 (VIP1) (h) (Homo sapiens, UniProt P32241); assay: CEREP binding panel; conditions: agonist radioligand, read-out: % Inhibition of Control Specific Binding
T9 construct: purchased Millipore KinaseProfiler (kinases); Cerep (receptors and ion channels)
T9 sequence (P32241 31-457): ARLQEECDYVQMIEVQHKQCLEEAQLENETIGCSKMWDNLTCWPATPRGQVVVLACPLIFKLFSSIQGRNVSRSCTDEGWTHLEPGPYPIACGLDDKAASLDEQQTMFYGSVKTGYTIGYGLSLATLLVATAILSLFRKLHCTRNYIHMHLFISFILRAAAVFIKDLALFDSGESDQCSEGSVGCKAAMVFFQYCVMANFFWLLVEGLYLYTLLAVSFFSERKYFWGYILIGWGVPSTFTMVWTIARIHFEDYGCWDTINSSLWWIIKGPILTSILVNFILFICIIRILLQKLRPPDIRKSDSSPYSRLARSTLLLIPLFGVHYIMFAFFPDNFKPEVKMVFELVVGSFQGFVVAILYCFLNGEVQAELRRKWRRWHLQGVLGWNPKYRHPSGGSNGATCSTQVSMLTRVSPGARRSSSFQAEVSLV

[11] = test system: Ca2+ channel (L, verapamil site) (phenylalkylamine); assay: CEREP binding panel; conditions: 10 μM, antagonist radioligand
[12] = target: T10, norepinephrine transporter (h) (Homo sapiens, UniProt P23975); assay: CEREP binding panel; conditions: antagonist radioligand, read-out: % Inhibition of Control Specific Binding
T10 construct: purchased Millipore KinaseProfiler (kinases); Cerep (receptors and ion channels)

[13] = target: T11, dopamine transporter (h) (Homo sapiens, UniProt Q01959); assay: CEREP binding panel; conditions: antagonist radioligand, read-out: % Inhibition of Control Specific Binding
T11 construct: purchased Millipore KinaseProfiler (kinases); Cerep (receptors and ion channels)

[14] = target: T12, ASK1 (Homo sapiens, UniProt Q99683); assay: Millipore kinase panel; type: biochemical; conditions: read-out: % Control
T12 construct: purchased Millipore KinaseProfiler (kinases); Cerep (receptors and ion channels)

[15] = target: T13, BRSK1 (Homo sapiens, UniProt Q8TDC3); assay: Millipore kinase panel; type: biochemical; conditions: read-out: % Control
T13 construct: purchased Millipore KinaseProfiler (kinases); Cerep (receptors and ion channels)

[16] = target: T14, BTK (Homo sapiens, UniProt Q06187); assay: Millipore kinase panel; type: biochemical; conditions: read-out: % Control
T14 construct: purchased Millipore KinaseProfiler (kinases); Cerep (receptors and ion channels)

[17] = target: T15, CAMKIV (Homo sapiens, UniProt Q16566); assay: Millipore kinase panel; type: biochemical; conditions: read-out: % Control
T15 construct: purchased Millipore KinaseProfiler (kinases); Cerep (receptors and ion channels)

[18] = target: T16, DYRK2 (Homo sapiens, UniProt Q92630); assay: Millipore kinase panel; type: biochemical; conditions: read-out: % Control
T16 construct: purchased Millipore KinaseProfiler (kinases); Cerep (receptors and ion channels)

[19] = target: T17, EPHB2 (Homo sapiens, UniProt P29323); assay: Millipore kinase panel; type: biochemical; conditions: read-out: % Control
T17 construct: purchased Millipore KinaseProfiler (kinases); Cerep (receptors and ion channels)

[20] = target: T18, FMS (Homo sapiens, UniProt P07333); assay: Millipore kinase panel; type: biochemical; conditions: read-out: % Control
T18 construct: purchased Millipore KinaseProfiler (kinases); Cerep (receptors and ion channels)

[21] = target: T19, HIPK3 (Homo sapiens, UniProt Q9H422); assay: Millipore kinase panel; type: biochemical; conditions: read-out: % Control
T19 construct: purchased Millipore KinaseProfiler (kinases); Cerep (receptors and ion channels)

[22] = target: T20, IKKBETA (Homo sapiens, UniProt O14920); assay: Millipore kinase panel; type: biochemical; conditions: read-out: % Control
T20 construct: purchased Millipore KinaseProfiler (kinases); Cerep (receptors and ion channels)

[23] = target: T21, JNK2ALPHA2 (Homo sapiens, UniProt P45984); assay: Millipore kinase panel; type: biochemical; conditions: read-out: % Control
T21 construct: purchased Millipore KinaseProfiler (kinases); Cerep (receptors and ion channels)
T21 sequence (P45984 whole entry): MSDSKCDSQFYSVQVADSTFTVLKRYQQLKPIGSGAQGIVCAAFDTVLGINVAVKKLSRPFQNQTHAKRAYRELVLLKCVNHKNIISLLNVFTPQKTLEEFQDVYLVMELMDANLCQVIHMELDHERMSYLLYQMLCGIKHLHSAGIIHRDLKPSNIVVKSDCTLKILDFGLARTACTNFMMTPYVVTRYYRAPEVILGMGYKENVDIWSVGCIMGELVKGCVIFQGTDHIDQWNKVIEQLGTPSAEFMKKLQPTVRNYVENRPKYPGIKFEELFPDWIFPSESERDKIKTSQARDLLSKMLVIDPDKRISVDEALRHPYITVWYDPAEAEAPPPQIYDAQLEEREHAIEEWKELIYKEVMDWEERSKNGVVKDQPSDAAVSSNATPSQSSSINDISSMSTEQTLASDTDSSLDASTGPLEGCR

[24] = target: T22, LKB1 (Homo sapiens, UniProt Q15831); assay: Millipore kinase panel; type: biochemical; conditions: read-out: % Control
T22 construct: purchased Millipore KinaseProfiler (kinases); Cerep (receptors and ion channels)

[25] = target: T23, MET (Homo sapiens, UniProt P08581); assay: Millipore kinase panel; type: biochemical; conditions: read-out: % Control
T23 construct: purchased Millipore KinaseProfiler (kinases); Cerep (receptors and ion channels)

[26] = target: T24, MRCKBETA (Homo sapiens, UniProt Q9Y5S2); assay: Millipore kinase panel; type: biochemical; conditions: read-out: % Control
T24 construct: purchased Millipore KinaseProfiler (kinases); Cerep (receptors and ion channels)

[27] = target: T25, NEK6 (Homo sapiens, UniProt Q9HC98); assay: Millipore kinase panel; type: biochemical; conditions: read-out: % Control
T25 construct: purchased Millipore KinaseProfiler (kinases); Cerep (receptors and ion channels)

[28] = target: T26, PKCMU (Homo sapiens, UniProt Q15139); assay: Millipore kinase panel; type: biochemical; conditions: read-out: % Control
T26 construct: purchased Millipore KinaseProfiler (kinases); Cerep (receptors and ion channels)

[29] = target: T27, PKG1BETA (Homo sapiens, UniProt Q13976); assay: Millipore kinase panel; type: biochemical; conditions: read-out: % Control
T27 construct: purchased Millipore

[30] = target: T28, PTK5 (Homo sapiens, UniProt P42685); assay: Millipore kinase panel; type: biochemical; conditions: read-out: % Control
T28 construct: purchased Millipore KinaseProfiler (kinases); Cerep (receptors and ion channels)

[31] = target: T29, RIPK2 (Homo sapiens, UniProt O43353); assay: Millipore kinase panel; type: biochemical; conditions: read-out: % Control
T29 construct: purchased Millipore KinaseProfiler (kinases); Cerep (receptors and ion channels)

[32] = target: T30, RON (Homo sapiens, UniProt Q04912); assay: Millipore kinase panel; type: biochemical; conditions: read-out: % Control
T30 construct: purchased Millipore KinaseProfiler (kinases); Cerep (receptors and ion channels)

[33] = target: T31, RSK1 (Homo sapiens, UniProt Q15418); assay: Millipore kinase panel; type: biochemical; conditions: read-out: % Control
T31 construct: purchased Millipore KinaseProfiler (kinases); Cerep (receptors and ion channels)

[34] = target: T32, SIK (Homo sapiens, UniProt P57059); assay: Millipore kinase panel; type: biochemical; conditions: read-out: % Control
T32 construct: purchased Millipore KinaseProfiler (kinases); Cerep (receptors and ion channels)
T32 sequence (P57059 whole entry): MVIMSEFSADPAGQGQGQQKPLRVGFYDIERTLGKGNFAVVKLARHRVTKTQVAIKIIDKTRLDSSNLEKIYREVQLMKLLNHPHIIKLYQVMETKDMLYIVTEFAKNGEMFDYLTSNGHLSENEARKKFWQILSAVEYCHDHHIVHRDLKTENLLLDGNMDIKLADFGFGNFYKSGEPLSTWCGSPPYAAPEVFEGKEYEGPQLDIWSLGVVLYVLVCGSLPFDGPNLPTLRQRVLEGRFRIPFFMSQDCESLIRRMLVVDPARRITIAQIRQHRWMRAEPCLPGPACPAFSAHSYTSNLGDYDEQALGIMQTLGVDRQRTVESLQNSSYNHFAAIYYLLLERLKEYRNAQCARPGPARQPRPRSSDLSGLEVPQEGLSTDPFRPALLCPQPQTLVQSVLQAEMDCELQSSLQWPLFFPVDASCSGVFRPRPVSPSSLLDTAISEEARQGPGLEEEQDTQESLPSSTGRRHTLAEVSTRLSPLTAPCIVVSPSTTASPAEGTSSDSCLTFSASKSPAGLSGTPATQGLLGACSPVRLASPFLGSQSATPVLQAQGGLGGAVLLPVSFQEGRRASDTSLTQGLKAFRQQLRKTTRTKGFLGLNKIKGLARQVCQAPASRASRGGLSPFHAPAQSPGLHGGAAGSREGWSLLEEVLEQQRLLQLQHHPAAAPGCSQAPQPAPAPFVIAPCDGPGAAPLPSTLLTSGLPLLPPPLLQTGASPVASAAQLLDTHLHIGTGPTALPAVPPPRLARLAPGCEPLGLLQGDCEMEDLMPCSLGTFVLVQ

[35] = target: T33, TBK1 (Homo sapiens, UniProt Q9UHD2); assay: Millipore kinase panel; type: biochemical; conditions: read-out: % Control
T33 construct: purchased Millipore KinaseProfiler (kinases); Cerep (receptors and ion channels)

[36] = target: T34, WNK3 (Homo sapiens, UniProt Q9BYP7); assay: Millipore kinase panel; type: biochemical; conditions: read-out: % Control
T34 construct: purchased Millipore KinaseProfiler (kinases); Cerep (receptors and ion channels)
T34 sequence (Q9BYP7 whole entry): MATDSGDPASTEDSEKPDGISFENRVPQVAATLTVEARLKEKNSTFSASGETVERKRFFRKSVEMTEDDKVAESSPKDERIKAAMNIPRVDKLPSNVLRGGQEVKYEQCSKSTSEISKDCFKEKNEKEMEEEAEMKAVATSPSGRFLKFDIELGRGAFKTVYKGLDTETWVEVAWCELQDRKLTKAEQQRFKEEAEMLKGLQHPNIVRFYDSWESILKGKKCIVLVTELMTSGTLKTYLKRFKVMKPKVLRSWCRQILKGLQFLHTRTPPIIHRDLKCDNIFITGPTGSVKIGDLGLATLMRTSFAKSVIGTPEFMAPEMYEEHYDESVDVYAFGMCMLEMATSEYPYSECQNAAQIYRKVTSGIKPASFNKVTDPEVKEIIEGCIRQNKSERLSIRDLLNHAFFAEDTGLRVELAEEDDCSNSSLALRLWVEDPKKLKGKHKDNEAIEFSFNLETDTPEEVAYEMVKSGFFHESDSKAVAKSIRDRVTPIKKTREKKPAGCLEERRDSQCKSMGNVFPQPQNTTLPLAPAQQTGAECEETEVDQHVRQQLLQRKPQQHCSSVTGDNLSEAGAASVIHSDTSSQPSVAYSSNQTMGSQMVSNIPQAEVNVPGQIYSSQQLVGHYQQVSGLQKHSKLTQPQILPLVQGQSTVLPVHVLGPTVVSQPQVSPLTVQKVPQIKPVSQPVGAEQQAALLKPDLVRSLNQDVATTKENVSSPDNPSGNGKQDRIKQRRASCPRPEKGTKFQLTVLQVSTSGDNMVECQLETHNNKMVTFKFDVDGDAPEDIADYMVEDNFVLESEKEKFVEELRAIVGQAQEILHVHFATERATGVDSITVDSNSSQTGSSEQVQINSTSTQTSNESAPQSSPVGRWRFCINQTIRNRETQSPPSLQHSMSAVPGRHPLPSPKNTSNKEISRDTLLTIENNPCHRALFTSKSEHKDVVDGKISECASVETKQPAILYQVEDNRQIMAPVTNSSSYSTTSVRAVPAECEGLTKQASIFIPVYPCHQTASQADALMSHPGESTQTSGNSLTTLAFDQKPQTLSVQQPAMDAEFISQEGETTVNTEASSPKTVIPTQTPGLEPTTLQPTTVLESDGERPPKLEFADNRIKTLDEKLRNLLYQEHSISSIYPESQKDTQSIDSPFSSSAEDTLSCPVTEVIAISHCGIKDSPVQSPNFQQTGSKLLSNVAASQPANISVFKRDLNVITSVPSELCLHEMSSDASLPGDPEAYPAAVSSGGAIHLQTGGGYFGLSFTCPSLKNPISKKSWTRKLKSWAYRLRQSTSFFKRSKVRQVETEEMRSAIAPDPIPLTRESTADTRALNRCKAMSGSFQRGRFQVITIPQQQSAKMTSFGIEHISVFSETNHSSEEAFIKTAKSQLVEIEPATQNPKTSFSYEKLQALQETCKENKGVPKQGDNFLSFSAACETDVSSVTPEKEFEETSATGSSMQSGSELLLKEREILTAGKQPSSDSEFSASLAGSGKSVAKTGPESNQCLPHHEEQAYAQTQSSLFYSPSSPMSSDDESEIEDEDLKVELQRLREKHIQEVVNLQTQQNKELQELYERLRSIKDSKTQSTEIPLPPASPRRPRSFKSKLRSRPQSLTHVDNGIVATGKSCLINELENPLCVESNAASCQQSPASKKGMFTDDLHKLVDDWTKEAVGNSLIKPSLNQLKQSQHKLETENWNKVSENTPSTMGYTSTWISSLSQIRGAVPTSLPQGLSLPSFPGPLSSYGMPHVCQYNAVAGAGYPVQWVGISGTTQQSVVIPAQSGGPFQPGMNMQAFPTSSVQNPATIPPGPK

[37] = target: T35, GRK5 (Homo sapiens, UniProt P34947); assay: Millipore kinase panel; type: biochemical; conditions: read-out: % Control
T35 construct: purchased Millipore KinaseProfiler (kinases); Cerep (receptors and ion channels)

[38] = target: T36, CAMKIIBETA (Homo sapiens, UniProt Q13554); assay: Millipore kinase panel; type: biochemical; conditions: read-out: % Control
T36 construct: purchased Millipore KinaseProfiler (kinases); Cerep (receptors and ion channels)

[39] = target: T37, CLK3 (Homo sapiens, UniProt P49761); assay: Millipore kinase panel; type: biochemical; conditions: read-out: % Control
T37 construct: purchased Millipore KinaseProfiler (kinases); Cerep (receptors and ion channels)

[40] = target: T38, FAK (Homo sapiens, UniProt Q05397); assay: Millipore kinase panel; type: biochemical; conditions: read-out: % Control
T38 construct: purchased Millipore KinaseProfiler (kinases); Cerep (receptors and ion channels)

[41] = target: T39, VRK2 (Homo sapiens, UniProt Q86Y07); assay: Millipore kinase panel; type: biochemical; conditions: read-out: % Control
T39 construct: purchased Millipore KinaseProfiler (kinases); Cerep (receptors and ion channels)
T39 sequence (Q86Y07 whole entry): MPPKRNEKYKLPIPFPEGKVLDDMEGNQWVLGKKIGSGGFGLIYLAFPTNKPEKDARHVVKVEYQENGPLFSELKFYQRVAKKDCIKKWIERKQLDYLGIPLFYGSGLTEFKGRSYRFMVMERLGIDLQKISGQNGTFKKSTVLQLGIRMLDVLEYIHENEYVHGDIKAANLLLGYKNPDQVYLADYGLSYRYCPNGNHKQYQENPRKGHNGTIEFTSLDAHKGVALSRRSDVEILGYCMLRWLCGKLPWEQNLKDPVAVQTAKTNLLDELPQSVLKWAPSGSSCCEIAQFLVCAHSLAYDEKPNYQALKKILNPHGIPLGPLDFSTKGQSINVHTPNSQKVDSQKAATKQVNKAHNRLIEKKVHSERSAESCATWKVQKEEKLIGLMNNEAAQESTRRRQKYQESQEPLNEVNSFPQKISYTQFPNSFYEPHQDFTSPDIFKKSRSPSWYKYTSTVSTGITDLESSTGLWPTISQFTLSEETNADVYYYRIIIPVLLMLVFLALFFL

[42] = target: T40, PIM-3 (Homo sapiens, UniProt Q86V86); assay: Millipore kinase panel; type: biochemical; conditions: read-out: % Control
T40 construct: purchased Millipore KinaseProfiler (kinases); Cerep (receptors and ion channels)

[43] = target: T41, TLK2 (Homo sapiens, UniProt Q86UE8); assay: Millipore kinase panel; type: biochemical; conditions: read-out: % Control
T41 construct: purchased Millipore KinaseProfiler (kinases); Cerep (receptors and ion channels)

[44] = target: T42, MELK (Homo sapiens, UniProt Q14680); assay: Millipore kinase panel; type: biochemical; conditions: read-out: % Control
T42 construct: purchased Millipore KinaseProfiler (kinases); Cerep (receptors and ion channels)

## O=C1NCCC12CCN(c1c(Cl)cncc1-c1ccc(N3CCOCC3)cc1)CC2 [Compound 44, 8-(3-Chloro-5-(4-morpholin-4-ylphenyl)pyridin-4-yl)-2,8-diazaspiro[4.5]decan-1-one]
[1]
  % Inhibition of Control Specific Binding: -1%
[2]
  inhibition at 10 µM: 2%
[3]
  inhibition at 10 µM: -16%
[4]
  inhibition at 10 µM: 2%
[5]
  inhibition at 10 µM: 9%
[6]
  inhibition at 10 µM: -5%
[7]
  inhibition at 10 µM: 12%
[8]
  inhibition at 10 µM: 11%
[9]
  inhibition at 10 µM: -4%
[10]
  inhibition at 10 µM: 0%
[11]
  % Inhibition of Control Specific Binding: 9%
[12]
  inhibition at 10 µM: -15%
[13]
  inhibition at 10 µM: -13%
[14]
  remaining activity at 1 µM: -1%
[15]
  remaining activity at 1 µM: 5%
[16]
  remaining activity at 1 µM: -2%
[17]
  remaining activity at 1 µM: -8%
[18]
  remaining activity at 1 µM: 9%
[19]
  remaining activity at 1 µM: -1%
[20]
  remaining activity at 1 µM: -39%
[21]
  remaining activity at 1 µM: 7%
[22]
  remaining activity at 1 µM: 3%
[23]
  remaining activity at 1 µM: 9%
[24]
  remaining activity at 1 µM: 7%
[25]
  remaining activity at 1 µM: -14%
[26]
  remaining activity at 1 µM: 4%
[27]
  remaining activity at 1 µM: -4%
[28]
  remaining activity at 1 µM: -22%
[29]
  remaining activity at 1 µM: -4%
[30]
  remaining activity at 1 µM: 0%
[31]
  remaining activity at 1 µM: 3%
[32]
  remaining activity at 1 µM: 13%
[33]
  remaining activity at 1 µM: 2%
[34]
  remaining activity at 1 µM: -3%
[35]
  remaining activity at 1 µM: 5%
[36]
  remaining activity at 1 µM: 0%
[37]
  remaining activity at 1 µM: 0%
[38]
  remaining activity at 1 µM: 0%
[39]
  remaining activity at 1 µM: 0%
[40]
  remaining activity at 1 µM: -14%
[41]
  remaining activity at 1 µM: -5%
[42]
  remaining activity at 1 µM: 5%
[43]
  remaining activity at 1 µM: -12%
[44]
  remaining activity at 1 µM: -19%
